According to PubChem BioAssay AID248 (DTP/NCI, 2004):
Several values for one entry are separate records, joined by “and”; a condition that tells them apart may be missing. Equal values may be shown once. Toxic doses and inconclusive results are not listed. Cut-off read from the data, not from the text of the source: active = T/C of 150% or more; inactive = T/C below 125%.

Test system: L1210 leukemia ip in BDF1 mice, survival T/C
Assay: NCI In Vivo Anticancer Drug Screen. Data for tumor model L1210 Leukemia (intraperitoneal) in B6D2F1 (BDF1) mice
Settings: endpoint: mean survival time, higher = longer survival
How it was run: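 Each compound was tested against a transplantable tumor grown in mice. The endpoint was survival, with treated animals benchmarked against vehicle controls as a simple ratio.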

[1] = dose: 100.0 mg/kg/injection, schedule: Q01DX009 (ip), vehicle: saline with Tween-80
[2] = dose: 200.0 mg/kg/injection, schedule: Q01DX009 (ip), vehicle: saline with Tween-80
[3] = dose: 400.0 mg/kg/injection, schedule: Q01DX009 (ip), vehicle: saline with Tween-80
[4] = dose: 50.0 mg/kg/injection, schedule: Q01DX009 (ip), vehicle: saline
[5] = dose: 100.0 mg/kg/injection, schedule: Q04DX003 (ip), vehicle: saline
[6] = dose: 200.0 mg/kg/injection, schedule: Q04DX003 (ip), vehicle: saline
[7] = dose: 100.0 mg/kg/injection, schedule: Q01DX001 (ip), vehicle: Klucel (hydroxypropylcellulose) (HPC)
[8] = dose: 200.0 mg/kg/injection, schedule: Q01DX001 (ip), vehicle: Klucel (hydroxypropylcellulose) (HPC)
[9] = dose: 100.0 mg/kg/injection, schedule: Q01DX009 (ip), vehicle: Klucel (hydroxypropylcellulose) (HPC)
[10] = dose: 100.0 mg/kg/injection, schedule: Q04DX003 (ip), vehicle: Klucel (hydroxypropylcellulose) (HPC)
[11] = dose: 200.0 mg/kg/injection, schedule: Q01DX009 (ip), vehicle: Klucel (hydroxypropylcellulose) (HPC)
[12] = dose: 200.0 mg/kg/injection, schedule: Q04DX003 (ip), vehicle: Klucel (hydroxypropylcellulose) (HPC)
[13] = dose: 400.0 mg/kg/injection, schedule: Q01DX009 (ip), vehicle: Klucel (hydroxypropylcellulose) (HPC)
[14] = dose: 400.0 mg/kg/injection, schedule: Q04DX003 (ip), vehicle: Klucel (hydroxypropylcellulose) (HPC)
[15] = dose: 100.0 mg/kg/injection, schedule: Q01DX009 (ip), vehicle: saline

Measured: T/C

O=C1CCC(C(=O)NC(Cc2cncn2Cc2ccccc2)C(=O)NC(COCc2ccccc2)Cc2c[nH]c3ccccc23)N1 (stereo unspecified)
inactive: [1] 96 % of control | [2] 104 % of control | [3] 94 % of control

C/C(Cc1ccccc1)=N\O
inactive: dose: 59.0 mg/kg/injection, schedule: Q01DX009 (ip), vehicle: saline with Tween-80 107 % of control | [1] 104 % of control | dose: 118.0 mg/kg/injection, schedule: Q01DX009 (ip), vehicle: saline with Tween-80 109 % of control | dose: 236.0 mg/kg/injection, schedule: Q01DX009 (ip), vehicle: saline with Tween-80 103 % of control | [3] 97 % of control

CCCC(C(=O)OCC)C1=NC(C)(C)CC(C)O1 (stereo unspecified)
inactive: dose: 100.0 mg/kg/injection, schedule: Q01DX009 (ip), vehicle: alcohol 102 % of control | dose: 200.0 mg/kg/injection, schedule: Q01DX009 (ip), vehicle: alcohol 105 % of control | dose: 400.0 mg/kg/injection, schedule: Q01DX009 (ip), vehicle: alcohol 105 % of control

CCOC(=O)c1[nH]c(C)c(C(C)=O)c1C
inactive: [1] 92 % of control | [2] 97 % of control | [3] 100 % of control

COc1ccc(OC)c(C(=O)CCCC(=O)O)c1
inactive: dose: 100.0 mg/kg/injection, schedule: Q01DX009 (ip), vehicle: acetone 91 % of control | dose: 100.0 mg/kg/injection, schedule: Q04DX003 (ip), vehicle: saline with Tween-80 96 % of control | dose: 200.0 mg/kg/injection, schedule: Q01DX009 (ip), vehicle: acetone 86 % of control | dose: 200.0 mg/kg/injection, schedule: Q04DX003 (ip), vehicle: saline with Tween-80 89 % of control | dose: 400.0 mg/kg/injection, schedule: Q01DX009 (ip), vehicle: acetone 90 % of control | dose: 400.0 mg/kg/injection, schedule: Q04DX003 (ip), vehicle: saline with Tween-80 91 % of control

CCNCCCOCC
inactive: [4] 91 % of control | [5] 103 % of control | [6] 95 % of control

c1ccc2c(c1)ccc1c[s+]ccc12
inactive: dose: 100.0 mg/kg/injection, schedule: Q04DX003 (ip), vehicle: acetone 103 % of control | dose: 200.0 mg/kg/injection, schedule: Q04DX003 (ip), vehicle: acetone 103 % of control

CCCCCC1CCC(OC(=O)NC)CC1 (stereo unspecified)
inactive: [7] 99 % of control | [8] 100 % of control | dose: 400.0 mg/kg/injection, schedule: Q01DX001 (ip), vehicle: Klucel (hydroxypropylcellulose) (HPC) 94 % of control

CCOC(=O)Nc1ccc([N+](=O)[O-])cc1
inactive: [9] 87 % of control | [10] 99 % of control | [11] 99 % of control | [12] 110 % of control | [13] 97 % of control | [14] 89 % of control

CCCCCCCCCC(=O)CC
inactive: [9] 104 % of control | [10] 110 % of control | [11] 96 % of control | [12] 97 % of control | [13] 102 % of control | [14] 93 % of control

CCCCSCCN
inactive: dose: 75.0 mg/kg/injection, schedule: Q01DX009 (ip), vehicle: Klucel (hydroxypropylcellulose) (HPC) 95 % of control | dose: 150.0 mg/kg/injection, schedule: Q01DX009 (ip), vehicle: Klucel (hydroxypropylcellulose) (HPC) 93 % of control

CC1OC(OC2CCC3(C=O)C4CCC5(C)C(C6=CC(=O)OC6)CCC5(O)C4CCC3(O)C2)C(O)C(O)C1O (stereo unspecified)
inactive: dose: 3.0 mg/kg/injection, schedule: Q01DX001 (ip), vehicle: carboxymethylcellulose (CMC) 96 % of control | dose: 6.0 mg/kg/injection, schedule: Q01DX001 (ip), vehicle: carboxymethylcellulose (CMC) 98 % of control

COc1ccccc1C(=O)N/N=C/c1ccc(O)cc1
inactive: [9] 101 % of control | [11] 97 % of control | [13] 94 % of control

CC(C)(C)NC(=O)CCl
inactive: [7] 93 % of control | [8] 106 % of control

CC[N+]1(C)CC2C3CCC(C)(O3)C2C1 (stereo unspecified)
inactive: dose: 44.0 mg/kg/injection, schedule: Q01DX Z (ip), vehicle: methylcellulose (MC) 104 % of control | dose: 66.0 mg/kg/injection, schedule: Q01DX Z (ip), vehicle: methylcellulose (MC) 98 % of control | dose: 100.0 mg/kg/injection, schedule: Q01DX Z (ip), vehicle: methylcellulose (MC) 104 % of control

COC1C(COC(=O)c2ccccc2)OC2OC(C)(C)OC21 (stereo unspecified)
inactive: dose: 50.0 mg/kg/injection, schedule: Q01DX001 (ip), vehicle: carboxymethylcellulose (CMC) 98 % of control | dose: 100.0 mg/kg/injection, schedule: Q01DX001 (ip), vehicle: carboxymethylcellulose (CMC) 98 % of control | dose: 200.0 mg/kg/injection, schedule: Q01DX001 (ip), vehicle: carboxymethylcellulose (CMC) 93 % of control | dose: 400.0 mg/kg/injection, schedule: Q01DX001 (ip), vehicle: carboxymethylcellulose (CMC) 109 % of control

Cc1ccc(-n2nnc3ccccc3c2=O)cc1C
inactive: [15] 101 % of control | [5] 92 % of control | dose: 200.0 mg/kg/injection, schedule: Q01DX009 (ip), vehicle: saline 98 % of control | [6] 108 % of control | dose: 400.0 mg/kg/injection, schedule: Q01DX009 (ip), vehicle: saline 104 % of control | dose: 400.0 mg/kg/injection, schedule: Q04DX003 (ip), vehicle: saline 93 % of control

CC1(C)N=C(N)N=C(N)N1c1ccc(C(=O)Nc2cccc(S(=O)(=O)F)c2)cc1
inactive: dose: 0.8 mg/kg/injection, schedule: Q01DX009 (ip), vehicle: saline 97 % of control | dose: 4.0 mg/kg/injection, schedule: Q01DX009 (ip), vehicle: saline 101 % of control | dose: 20.0 mg/kg/injection, schedule: Q01DX009 (ip), vehicle: saline 97 % of control | [15] 100 % of control | dose: 500.0 mg/kg/injection, schedule: Q01DX009 (ip), vehicle: saline 92 % of control

COC(=O)C1C2CCc3cc(OC)ccc3C2=CCC1C(OC)OC (stereo unspecified)
inactive: [10] 89 % of control | [12] 89 % of control | [14] 89 % of control

Oc1c(Cl)cc(Cl)cc1CNCc1ccccc1
inactive: dose: 100.0 mg/kg/injection, schedule: Q01DX001 (ip), vehicle: other 93 % of control | dose: 100.0 mg/kg/injection, schedule: Q04DX003 (ip), vehicle: other 110 % of control | dose: 200.0 mg/kg/injection, schedule: Q01DX001 (ip), vehicle: other 94 % of control | dose: 200.0 mg/kg/injection, schedule: Q04DX003 (ip), vehicle: other 102 % of control | dose: 400.0 mg/kg/injection, schedule: Q01DX001 (ip), vehicle: other 90 % of control | dose: 400.0 mg/kg/injection, schedule: Q04DX003 (ip), vehicle: other 110 % of control

C1=C2CN3CCC45c6ccccc6N6CCC(OC1)C(C2CC34)C65 (stereo unspecified)
inactive: dose: 1.25 mg/kg/injection, schedule: Q01DX001 (ip), vehicle: other 105 % of control

CC1(C)OCC2SC(n3cnc4c(N)ncnc43)C(O)C2O1 (stereo unspecified)
inactive: dose: 25.0 mg/kg/injection, schedule: Q01DX009 (ip), vehicle: saline 94 % of control | dose: 33.0 mg/kg/injection, schedule: Q01DX001 (ip), vehicle: carboxymethylcellulose (CMC) 97 % of control | [4] 98 % of control | dose: 66.5 mg/kg/injection, schedule: Q01DX001 (ip), vehicle: carboxymethylcellulose (CMC) 92 % of control | dose: 100.0 mg/kg/injection, schedule: Q01DX005 (ip), vehicle: saline 94 % of control and 97 % of control | [15] 98 % of control | dose: 133.0 mg/kg/injection, schedule: Q01DX001 (ip), vehicle: carboxymethylcellulose (CMC) 92 % of control | dose: 200.0 mg/kg/injection, schedule: Q01DX005 (ip), vehicle: saline 95 % of control

O=C(Nc1ncc([N+](=O)[O-])s1)c1ccc(Cl)s1
inactive: dose: 6.25 mg/kg/injection, schedule: Q04DX002 (ip), vehicle: Klucel (hydroxypropylcellulose) (HPC) 94 % of control | dose: 12.5 mg/kg/injection, schedule: Q04DX002 (ip), vehicle: Klucel (hydroxypropylcellulose) (HPC) 91 % of control | dose: 25.0 mg/kg/injection, schedule: Q04DX002 (ip), vehicle: Klucel (hydroxypropylcellulose) (HPC) 87 % of control

CC(=O)c1ccc(OC(=O)Nc2cc([N+](=O)[O-])ccc2F)cc1
inactive: [10] 98 % of control | [12] 101 % of control | [14] 95 % of control
